In patent publication US8153795B2, “Substituted 1-oxa-3,8-diazaspiro[4.5]-decan-2-one-compounds and the use thereof for producing drugs” (Gruenenthal GmbH, priority 2005, dated 2012) one finds inhibition data, which are given here for 30 molecules.

In general, inhibition refers to the change of the read-out against control, counted positive when it falls.

For the test, the target named is T1, 5-HT transporter (Rattus norvegicus, UniProt P31652).
T1 construct: from tissue; host or cells: rat brain synaptosomes (P2 fraction) from medulla and pons
T1 sequence (P31652 whole entry): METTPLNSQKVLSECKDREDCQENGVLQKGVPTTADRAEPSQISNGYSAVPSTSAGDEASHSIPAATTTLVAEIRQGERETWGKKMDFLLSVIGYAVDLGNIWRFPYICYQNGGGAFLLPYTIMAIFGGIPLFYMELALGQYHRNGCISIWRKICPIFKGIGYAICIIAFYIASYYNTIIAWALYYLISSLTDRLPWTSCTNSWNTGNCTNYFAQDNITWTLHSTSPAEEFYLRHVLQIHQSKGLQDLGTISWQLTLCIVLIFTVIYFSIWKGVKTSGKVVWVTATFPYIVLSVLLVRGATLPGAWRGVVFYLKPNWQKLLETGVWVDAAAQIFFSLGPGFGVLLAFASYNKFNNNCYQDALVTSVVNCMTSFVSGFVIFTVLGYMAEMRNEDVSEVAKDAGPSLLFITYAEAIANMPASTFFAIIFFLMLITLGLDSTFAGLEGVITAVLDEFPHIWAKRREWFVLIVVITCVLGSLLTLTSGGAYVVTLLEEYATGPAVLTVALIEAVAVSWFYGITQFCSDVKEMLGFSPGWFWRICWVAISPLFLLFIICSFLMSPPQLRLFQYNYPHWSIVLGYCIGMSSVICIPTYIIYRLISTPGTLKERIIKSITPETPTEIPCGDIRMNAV
Kind of test: 5-HT uptake inhibition in rat brain synaptosomes (medulla and pons), [3H]-5-HT. It counts as biochemical. The text has this:
a) Method for Determining Noradrenalin and 5-HT Uptake Inhibition:
Synaptosomes from rat brain regions are freshly isolated for in vitro studies, as described in the publication “The isolation of nerve endings from brain” by E. G. Gray and V. P. Whittaker, J. Anatomy 96, pages 79-88, 1962. The corresponding literature description is hereby introduced as a reference and is deemed to be part of the disclosure.
The tissue (hypothalamus for the determination of noradrenalin uptake inhibition and medulla and pons for the determination of 5-HT uptake inhibition) is homogenised in ice-cooled 0.32 M sucrose (100 mg of tissue/1 mL) in a glass homogeniser with Teflon pestle using five complete up and down strokes at 840 revolutions/minute.
The homogenate is centrifuged at 4° C. for 10 minutes at 1000 g. After subsequent centrifugation at 17000 g for 55 minutes, the synaptosomes (P2 fraction) are obtained, which are resuspended in 0.32 M […] (0.5 mL/100 mg of original weight).
The particular uptake is measured in a 96-well microtitre plate. The volume is 250 μl and the incubation proceeds at room temperature (approx. 20-25° C.) under an O2 atmosphere.
The incubation time is 7.5 minutes for [^3H]-NA and 5 minutes for [^3H]-5-HT. The 96 samples are then filtered through a Unifilter GF/B® microtitre plate (Packard) and washed with 200 mL of incubated buffer using a “Brabdel MPXRI-96T Cell-Harvester”. The Unifilter GF/B plate is dried for 1 hour at 55° C. The plate is then sealed with a Back Seal® (Packard) and 35 μl of scintillation fluid are added per well (Ultima Gold®, Packard). After sealing with a top Seal® (Packard) and establishing an equilibrium (around 5 hours), radioactivity is determined in a “Trilux 1450 Microbeta” (Wallac).
The quantity of protein used in the above determination corresponds to the values known from the literature, as for example described in “Protein measurement with the folin phenol reagent”, Lowry et al., J. Biol. Chem., 193, 265-275, 1951.
A detailed description of the method may additionally be found in the literature, for example in M. Ch. Frink, H.-H. Hennies, W. Engelberger, M. Haurand and B. Wilffert (1996) Arzneim.-Forsch./Drug Res. 46 (III), 11, 1029-1036.
As to `COc1cccc(CC(=O)N2CCC3(CC2)CN(Cc2cc(C)cc(C)c2)C(=O)O3)c1` [Example 113, 3-(3,5-dimethylbenzyl)-8-[2-(3-methoxyphenyl)acetyl]-1-oxa-3,8-diazaspiro[4.5]decan-2-one], 10 µM produced 68% inhibition.
Turning to `COc1cc(C)c(CS(=O)(=O)N2CCC3(CC2)CN(Cc2cc(C)cc(C)c2)C(=O)O3)c(C)c1C` [Example 114, 3-(3,5-dimethylbenzyl)-8-(4-methoxy-2,3,6-trimethylbenzylsulfonyl)-1-oxa-3,8-diazaspiro[4.5]decan-2-one], the inhibition at 10 µM was determined as 73%.
Under `N#Cc1ccc(CN2CC3(CCN(C(=O)c4ccc(-c5ccccc5)cc4)CC3)OC2=O)cc1` [Example 115, 4-[8-(biphenyl-4-carbonyl)-2-oxo-1-oxa-3,8-diazaspiro[4.5]dec-3-ylmethyl]benzonitrile] stands 84%; under `Cc1cc(C)cc(CN2CC3(CCN(S(=O)(=O)Cc4ccccc4Cl)CC3)OC2=O)c1` [Example 116, 8-(2-chlorobenzylsulfonyl)-3-(3,5-dimethylbenzyl)-1-oxa-3,8-diazaspiro[4.5]decan-2-one], 76%; under `Cc1cc(C)cc(CN2CC3(CCN(C(=O)c4ccc5nonc5c4)CC3)OC2=O)c1` [Example 117, 8-(benzo[1,2,5]oxadiazole-5-carbonyl)-3-(3,5-dimethylbenzyl)-1-oxa-3,8-diazaspiro[4.5]decan-2-one], 73%.
With `O=C1OC2(CCN(C(=O)c3ccc(-c4ccccc4)cc3)CC2)CN1Cc1ccc(I)cc1` [Example 118, 8-(biphenyl-4-carbonyl)-3-(4-iodobenzyl)-1-oxa-3,8-diazaspiro[4.5]decan-2-one] the figure was 66%; with `Cc1cc(C)cc(CN2CC3(CCN(C(=O)c4ccccn4)CC3)OC2=O)c1` [Example 119, 3-(3,5-dimethylbenzyl)-8-(pyridine-2-carbonyl)-1-oxa-3,8-diazaspiro[4.5]decan-2-one], 67%.
Molecule `O=C1OC2(CCN(C(=O)c3ccc(Cl)nc3)CC2)CN1Cc1ccc2ccccc2c1` [Example 120, 8-(6-chloropyridine-3-carbonyl)-3-naphthalen-2-ylmethyl-1-oxa-3,8-diazaspiro[4.5]decan-2-one] yielded an inhibition at 10 µM of 66%.
Under `CCSc1ncccc1C(=O)N1CCC2(CC1)CN(Cc1cccc(Br)c1)C(=O)O2` [Example 121, 3-(3-bromobenzyl)-8-(2-ethylsulfanylpyridine-3-carbonyl)-1-oxa-3,8-diazaspiro[4.5]decan-2-one] stands 77%; under `Cc1cc(C)cc(CN2CC3(CCN(C(=O)c4cc(C)on4)CC3)OC2=O)c1` [Example 122, 3-(3,5-dimethylbenzyl)-8-(5-methylisoxazole-3-carbonyl)-1-oxa-3,8-diazaspiro[4.5]decan-2-one], 68%.
`CCCCC(=O)N1CCC2(CC1)CN(Cc1cc([N+](=O)[O-])ccc1OC)C(=O)O2` [Example 123, 3-(2-methoxy-5-nitrobenzyl)-8-pentanoyl-1-oxa-3,8-diazaspiro[4.5]decan-2-one] returned an inhibition at 10 µM of 71%.
Under `Cc1cc(C)cc(CN2CC3(CCN(C(=O)c4ccc(Br)cc4)CC3)OC2=O)c1` [Example 124, 8-(4-bromobenzoyl)-3-(3,5-dimethylbenzyl)-1-oxa-3,8-diazaspiro[4.5]decan-2-one] stands 72%.
Under `COc1ccc([N+](=O)[O-])cc1CN1CC2(CCN(C(=O)c3cc(C(C)(C)C)oc3C)CC2)OC1=O` [Example 125, 8-(5-tert-butyl-2-methylfuran-3-carbonyl)-3-(2-methoxy-5-nitrobenzyl)-1-oxa-3,8-diazaspiro[4.5]decan-2-one] stands 63%; under `Cc1cc(C)cc(CN2CC3(CCN(C(=O)c4cccc(Cl)c4)CC3)OC2=O)c1` [Example 126, 8-(3-chlorobenzoyl)-3-(3,5-dimethylbenzyl)-1-oxa-3,8-diazaspiro[4.5]decan-2-one], 64%.
`CCSc1ncccc1C(=O)N1CCC2(CC1)CN(Cc1ccccc1C(F)(F)F)C(=O)O2` [Example 127, 8-(2-ethylsulfanylpyridine-3-carbonyl)-3-(2-trifluoromethylbenzyl)-1-oxa-3,8-diazaspiro[4.5]decan-2-one] yielded an inhibition at 10 µM of 63%.
On to `Cc1cc(C)cc(CN2CC3(CCN(C(=O)c4ccno4)CC3)OC2=O)c1` [Example 128, 3-(3,5-dimethylbenzyl)-8-(isoxazole-5-carbonyl)-1-oxa-3,8-diazaspiro[4.5]decan-2-one], for which at 10 µM the inhibition was 62%.
As for `O=C1OC2(CCN(C(=O)c3ccccn3)CC2)CN1Cc1cccc(Br)c1` [Example 129, 3-(3-bromobenzyl)-8-(pyridine-2-carbonyl)-1-oxa-3,8-diazaspiro[4.5]decan-2-one], the inhibition at 10 µM amounted to 77%.
Under `Cc1cc(C)cc(CN2CC3(CCN(C(=O)c4cccs4)CC3)OC2=O)c1` [Example 130, 3-(3,5-dimethylbenzyl)-8-(thiophene-2-carbonyl)-1-oxa-3,8-diazaspiro[4.5]decan-2-one] stands 70%; under `Cc1cc(C)cc(CN2CC3(CCN(C(=O)c4ccc(F)c(Cl)c4)CC3)OC2=O)c1` [Example 131, 8-(3-chloro-4-fluorobenzoyl)-3-(3,5-dimethylbenzyl)-1-oxa-3,8-diazaspiro[4.5]decan-2-one], 63%.
With `Cc1cc(C)cc(CN2CC3(CCN(C(=O)c4c(F)ccc(C)c4F)CC3)OC2=O)c1` [Example 132, 8-(2,6-difluoro-3-methylbenzoyl)-3-(3,5-dimethylbenzyl)-1-oxa-3,8-diazaspiro[4.5]decan-2-one] the figure was 65%.
With `COC(=O)CCC(=O)N1CCC2(CC1)CN(Cc1cccc(Br)c1)C(=O)O2` [Example 133, 4-[3-(3-bromobenzyl)-2-oxo-1-oxa-3,8-diazaspiro[4.5]dec-8-yl]-4-oxobutanoic acid methyl ester], the inhibition at 10 µM turned out to be 64%.
For `CCC(CC)C(=O)N1CCC2(CC1)CN(Cc1cccc(C#N)c1)C(=O)O2` [Example 134, 3-[8-(2-ethylbutyryl)-2-oxo-1-oxa-3,8-diazaspiro[4.5]dec-3-ylmethyl]benzonitrile], 10 µM produced 64% inhibition.
With `N#Cc1cccc(CN2CC3(CCN(S(=O)(=O)Cc4cccc(Br)c4)CC3)OC2=O)c1` [Example 135, 3-[8-(3-bromobenzylsulfonyl)-2-oxo-1-oxa-3,8-diazaspiro[4.5]dec-3-ylmethyl]benzonitrile] the figure was 69%; with `Cc1ccc(C(=O)N2CCC3(CC2)CN(Cc2ccc(F)c(F)c2)C(=O)O3)cc1` [Example 136, 3-(3,4-difluorobenzyl)-8-(4-methylbenzoyl)-1-oxa-3,8-diazaspiro[4.5]decan-2-one], 67%; with `COc1ccc([N+](=O)[O-])cc1CN1CC2(CCN(C(=O)c3cccc(N(C)C)c3)CC2)OC1=O` [Example 138, 8-(3-dimethylaminobenzoyl)-3-(2-methoxy-5-nitrobenzyl)-1-oxa-3,8-diazaspiro[4.5]decan-2-one], 65%.
With `O=C1OC2(CCN(C(=O)c3c(Cl)cccc3Cl)CC2)CN1Cc1ccccc1F` [Example 139, 8-(2,6-dichlorobenzoyl)-3-(2-fluorobenzyl)-1-oxa-3,8-diazaspiro[4.5]decan-2-one] the figure was 70%.
With `COc1ccc([N+](=O)[O-])cc1CN1CC2(CCN(C(=O)c3cccnc3Oc3ccccc3)CC2)OC1=O` [Example 140, 3-(2-methoxy-5-nitrobenzyl)-8-(2-phenoxypyridine-3-carbonyl)-1-oxa-3,8-diazaspiro[4.5]decan-2-one] the figure was 64%; with `COc1cccc(CC(=O)N2CCC3(CC2)CN(Cc2ccc4ccccc4c2)C(=O)O3)c1` [Example 141, 8-[2-(3-methoxyphenyl)acetyl]-3-naphthalen-2-ylmethyl-1-oxa-3,8-diazaspiro[4.5]decan-2-one], 78%.
Turning to `N#Cc1ccc(CN2CC3(CCN(S(=O)(=O)c4ccc5c(c4)CN(C(=O)C(F)(F)F)CC5)CC3)OC2=O)cc1` [Example 142, 4-{2-oxo-8-[2-(2,2,2-trifluoroacetyl)-1,2,3,4-tetrahydroisoquinoline-7-sulfonyl]-1-oxa-3,8-diazaspiro[4.5]dec-3-ylmethyl}benzonitrile], the inhibition at 10 µM amounted to 67%.
In turn, `O=C1OC2(CCN(C(=O)c3cc(C(F)(F)F)cc(C(F)(F)F)c3)CC2)CN1Cc1ccc(C(F)(F)F)cc1` [Example 143, 8-(3,5-bis-trifluoromethylbenzoyl)-3-(4-trifluoromethylbenzyl)-1-oxa-3,8-diazaspiro[4.5]decan-2-one] displayed an inhibition at 10 µM of 66%.
